Consider one compound from US10197579B2, “Methods for measurement of inhibition of c-Jun N-terminal kinase in skin” (Signal Pharmaceuticals, LLC, priority 2014, dated 2019).

The experiment relates to phosphorylation of c-Jun at Ser63 in HEKa cells. Put plainly: UVB-induced c-Jun Ser63 phosphorylation in HEKa keratinocytes (Western immunoblotting). It is filed as cell-based, Human. The settings on record: HEKa cells from four donors; 50 mJ/cm^2 UVB; Compound 1 added 1 hour before and kept 30 minutes after irradiation; nuclear extract, Western blot (FIGS. 1-5). The protocol:
Adult Normal Human […] Keratinocytes (HEKa) were obtained from ScienCell. Cells were plated in 10 cm dishes and incubated to allow attachment and then serum starved overnight. Compound 1 was added 1 hour before the cells were irradiated with 50 mJ/cm^2 UVB. Cells were incubated with Compound 1 for an additional 30 minutes after UVB irradiation. Cells were then lysed and nuclear and cytoplasmic proteins were isolated using the Nuclear Extraction kit by Active Motif. Protein was run on 10% tris glycine gels and transferred to nitrocellulose membranes. Blots were blocked for 1 hour. Total and phosphorylated c-Jun primary antibodies were added and incubated overnight. Licor secondary antibodies were added and blots were read on the Li-Cor Odyssey. 1-5. There was increased phosphorylation of c-Jun at Ser63 with 50 mJ/cm^2 UVB radiation, and inhibition by Compound 1 (FIGS. 1-5). There was also good separation of the nuclear and cytoplasmic proteins (c-Jun is only in the nucleus) (FIGS. 1-4).
(Immunoblotting shows a protein as a band on a membrane.)

As for `C[C@@H]1CC[C@@H](Nc2nc(NC(C)(C)C)ncc2C(N)=O)C[C@H]1O` [Compound 1, 2-(tert-butylamino)-4-((1R,3R,4R)-3-hydroxy-4-methylcyclohexylamino)-pyrimidine-5-carboxamide], the “inhibition of phosphorylation of c-Jun at Ser63 induced by UVB radiation” value is recorded as “inhibits c-Jun phosphorylation at Ser63 in a dose dependent manor”.
